# Patent US20260041640A1 (INCYCLIX BIO, LLC, priority 2023, published 2026)
# Like-named read-outs stand apart in the source and are kept apart here. Marks after values point to notes of the source that are not given here.
# Assays:
# [1] = phase 1/2 trial, advanced solid tumors; cited from earlier work
# [2] = Published human plasma PK of BLU-222 and PF-07104091 (estimated from 2023 ASCO presentations); assay type: in vivo; details: for Cmax to Cmin Ratio: estimated from published human results
# Source text: This is under the assumption that off-target toxicity is driven by Cmax and efficacy is driven by time above therapeutic threshold (Table 5).
# [3] = cited from earlier work
# CDK2/cyclin E [4] = target: T1, CDK2/cyclin E (Homo sapiens, UniProt P24941); details: intracellular; read-out: Nanobret IC50 CDK2/cyclin E; cited from earlier work
# CDK2/cyclin E [5] = target: T1, CDK2/cyclin E; details: biochemical; read-out: Target IC50 CDK2/cyclin E; cited from earlier work
# CCNE1-amplified cancers = details: BID dosing; cited from earlier work
# Ovcar-3 = details: BLU-222: based on Ovcar-3 cell cycle data (maximum G1 arrest); read-out: Cellular IC50; cited from earlier work
# [6] = treatment-related AEs, cited from earlier work
# [7] = plasma, 400 mg BID, estimated from published graph
# [8] = plasma, 600 mg BID, estimated from published graph
compound,measurement,setting,value
FC(F)Oc1cc(Nc2cnc3cnn(CC4CCOCC4)c3n2)n[nH]1 [BLU-222],"ocular adverse events (AEs) affecting vision, incidence",[1],19%
same,"ocular adverse events (AEs) affecting vision, patients",[1],5 patients
same,Cmax to Cmin Ratio,[2]; 400 mg BID,9.3
same,Cmax to Cmin Ratio,[2]; 600 mg BID,22
same,C12 hr,[3]; [7],100* ng/mL
same,Cmax,[3]; [7],927* ng/mL
same,C12 hr,[3]; [8],120* ng/mL
same,Cmax,[3]; [8],2639* ng/mL
same,IC50,CDK2/cyclin E [4],17.7 nM
same,IC50,CDK2/cyclin E [5],2.6 nM
same,In Vivo efficacy (efficacious dose),CCNE1-amplified cancers,100 mg/kg mg/kg BID
same,IC50,Ovcar-3,> 100 nM
COCc1cc(C(=O)Nc2cc([C@H]3CC[C@@H](OC(=O)NC(C)C)C3)[nH]n2)n(C)n1 [PF-07104091],C12 hr (Cmin at 12 hours),"[2]; 300 mg BID, estimated using Cmax of 2000 ng/mL and t1/2 of 2-3 hours",~31-125* ng/mL
same,concentration at 12 h,"[2]; human, 300 mg, read-out: C12 hr (Cmin at 12 hours)",31.2 to 125 ng/mL
same,t1/2,"[3]; human, plasma",2 to 3 h
same,MTD and monotherapy recommended dose for expansion (RDE),[3]; human,300 mg BID
same,Cmax,"[3]; plasma, 300 mg BID, estimated from 2023 ASCO presentation",~2000* ng/mL
same,anemia,[6]; Grade 3,8.6%
same,diarrhea,[6]; Grade 3,8.6%
same,fatigue,[6]; Grade 3,20.0%
same,nausea,[6]; Grade 3,14.3%
same,vomiting,[6]; Grade 3,2.9%
same,anemia,[6]; all grades,45.7%
same,diarrhea,[6]; all grades,48.6%
same,fatigue,[6]; all grades,45.7%
same,nausea,[6]; all grades,77.1%
same,vomiting,[6]; all grades,48.6%
same,In Vivo efficacy (efficacious dose),CCNE1-amplified cancers,≥ 100 mg/kg BID
same,IC50,Ovcar-3,< 100 nM
